Reference: patent US10214512B2, “Factor XIA inhibitors” (MERCK SHARP & DOHME CORP., priority 2015, dated 2019)

Key:
[1] = molecular target: purified human Factor XIa (Homo sapiens (Human), UniProt P03951); test: Factor XIa Assay; type: biochemical; conditions: purified human Factor XIa 40 pM; substrate Z-Gly-Pro-Arg-AFC 100 μM; 50 mM HEPES pH 7.4; read-out: Human FXIa Ki
Method in brief: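 Ki obtained from the dependence of uninhibited/inhibited initial-velocity ratio on inhibitor concentration, under a competitive-inhibition model. Reactions used 100 μM Z-Gly-Pro-Arg-AFC and 40 pM final human Factor XIa in pH 7.4 HEPES buffer with NaCl, CaCl2 and PEG 8000; run at rt or 37° C following pre-equilibration.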

[2] = molecular target: purified Human plasma Kallikrein (Homo sapiens (Human), UniProt P03952); test: Kallikrein Assay; type: biochemical; conditions: purified Human plasma Kallikrein 0.5 nM; substrate Acetyl-K-P-R-AFC; 50 mM HEPES pH 7.4; Ki from IC50 by Cheng Prusoff
Sequence of purified Human plasma Kallikrein (P03952 391-638): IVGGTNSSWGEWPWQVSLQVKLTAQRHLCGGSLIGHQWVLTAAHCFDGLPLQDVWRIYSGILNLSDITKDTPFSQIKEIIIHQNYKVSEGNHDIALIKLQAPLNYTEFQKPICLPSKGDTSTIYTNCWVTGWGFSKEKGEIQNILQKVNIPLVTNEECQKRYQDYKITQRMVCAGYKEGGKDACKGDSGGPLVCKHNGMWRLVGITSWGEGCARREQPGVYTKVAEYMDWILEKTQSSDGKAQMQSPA
Sequence of purified Human plasma Kallikrein (P03952 20-390 partner): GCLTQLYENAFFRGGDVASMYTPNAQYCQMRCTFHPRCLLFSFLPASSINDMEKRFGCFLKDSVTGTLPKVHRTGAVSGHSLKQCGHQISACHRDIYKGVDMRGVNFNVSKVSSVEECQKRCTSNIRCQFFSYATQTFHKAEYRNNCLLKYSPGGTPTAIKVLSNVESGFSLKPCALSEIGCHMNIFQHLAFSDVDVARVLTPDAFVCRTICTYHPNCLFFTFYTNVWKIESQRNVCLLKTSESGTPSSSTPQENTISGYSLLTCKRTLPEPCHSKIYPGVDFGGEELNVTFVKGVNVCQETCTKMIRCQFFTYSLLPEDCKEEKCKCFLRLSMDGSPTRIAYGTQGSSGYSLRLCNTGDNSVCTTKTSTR
Method: The effectiveness of a compound of the present invention as an inhibitor of Kallikrein can be determined using a relevant purified serine protease, and an appropriate synthetic substrate. The rate of hydrolysis of the chromogenic or fluorogenic substrate by the relevant serine protease was measured both in the absence and presence of compounds of the present invention. Assays were conducted at rt or at 37° C. […] A decrease in the rate of fluorescence change in the presence of inhibitor is indicative of enzyme inhibition. Such methods are known to one skilled in the art. The results of this assay are expressed as the inhibitory constant, Ki.
Kallikrein determinations were made in 50 mM HEPES buffer at pH 7.4 containing 150 mM NaCl, 5 mM CaCl2, and 0.1% PEG 8000 (polyethylene glycol; Fisher Scientific). Determinations were made using purified Human plasma Kallikrein at a final concentration of 0.5 nM (Enzyme Research Laboratories) and the synthetic substrate, Acetyl-K-P-R-AFC (Sigma # C6608) at a concentration of […].
Times required to achieve equilibration between enzyme and inhibitor were determined in control experiments. […] IC50 was determined by inflection point from a four parameter logistic curve fit. Ki was calculated using the Cheng Prusoff equation, Ki=IC50/(1+([S]/Km)).

Sequence of purified human Factor XIa (P03951 388-625): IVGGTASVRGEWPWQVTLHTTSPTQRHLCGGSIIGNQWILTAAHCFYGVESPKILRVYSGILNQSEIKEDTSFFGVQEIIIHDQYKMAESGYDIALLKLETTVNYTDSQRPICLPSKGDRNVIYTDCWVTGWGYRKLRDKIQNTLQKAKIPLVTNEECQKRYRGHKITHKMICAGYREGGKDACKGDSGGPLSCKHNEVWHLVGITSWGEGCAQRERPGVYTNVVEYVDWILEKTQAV
Sequence of purified human Factor XIa (P03951 19-387 partner): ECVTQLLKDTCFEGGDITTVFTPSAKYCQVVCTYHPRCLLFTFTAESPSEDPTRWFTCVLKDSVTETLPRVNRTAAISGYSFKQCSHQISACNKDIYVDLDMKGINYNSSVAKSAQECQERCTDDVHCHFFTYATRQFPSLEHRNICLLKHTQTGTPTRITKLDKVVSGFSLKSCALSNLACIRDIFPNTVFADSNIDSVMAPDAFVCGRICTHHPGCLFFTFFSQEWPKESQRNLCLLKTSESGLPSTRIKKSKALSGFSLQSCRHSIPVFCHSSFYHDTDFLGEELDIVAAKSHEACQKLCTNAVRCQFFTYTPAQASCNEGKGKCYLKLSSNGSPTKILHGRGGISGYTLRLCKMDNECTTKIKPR

2-(2^5-carboxy-4-oxo-3-aza- 1(1,3),2(1,2)- dibenzenacyclononaphane-9-yl)-5- (3-chloro-2,6-difluorophenyl)pyridine 1-oxide [Example 9]
Ki [1]: 13.6 nM
Ki [2]: 379 nM

COC(=O)Nc1ccc2c(c1)NC(=O)CC1CC1CC(c1ccc(-c3c(F)ccc(Cl)c3F)c[n+]1[O-])c1nc-2c[nH]1 (racemic) [Example 153]
Ki [1]: 3 nM
Ki [2]: 14.4 nM

COC(=O)Nc1ccc2c(c1)NC(=O)CC1CC1CC(c1ccc(-c3c(F)cccc3C(F)F)c[n+]1[O-])c1nc-2c(C)[nH]1 (racemic) [Example 156]
Ki [1]: 1.55 nM
Ki [2]: 13.6 nM

COC(=O)Nc1ccc2c(c1)NC(=O)CC1CC1CC(c1ccc(-c3c(C(F)F)ccc(Cl)c3F)c[n+]1[O-])c1nc-2c(C)[nH]1 (racemic) [Example 157]
Ki [1]: 0.45 nM
Ki [2]: 2.04 nM

COC(=O)Nc1ccc2c(c1)NC(=O)CC1CC1CC(c1ccc(-c3c(C(F)F)ccc(C)c3F)c[n+]1[O-])c1nc-2c(C)[nH]1 (racemic) [Example 158]
Ki [1]: 1.07 nM
Ki [2]: 4.92 nM

COC(=O)Nc1ccc2c(c1)NC(=O)CC1CC1CC(c1ccc(-c3c(OC(F)F)ccc(Cl)c3F)c[n+]1[O-])c1nc-2c(C)[nH]1 (racemic) [Example 159]
Ki [1]: 0.66 nM
Ki [2]: 3.5 nM

O=C1CCCCC(c2ccc(-c3cc(Cl)ccc3-n3cnnn3)c[n+]2[O-])c2c[nH]c(n2)-c2cc(F)ccc2N1 (racemic) [Example 160, (Z)-5-(5-chloro-2-(1H-tetrazol-1-yl)phenyl)-2-(2^5-fluoro-4-oxo-1^1H-3-aza-1(2,4)-imidazola-2(1,2)-benzenacyclononaphane-9-yl)pyridine 1-oxide]
Ki [1]: 0.47 nM
Ki [2]: 4 nM

O=C1CCCCC(c2ccc(-c3c(-n4cnnn4)ccc(Cl)c3F)c[n+]2[O-])c2c[nH]c(n2)-c2cc(F)ccc2N1 (racemic) [Example 161, (Z)-5-(3-chloro-2-fluoro-6-(1H-tetrazol-1-yl)phenyl)-2-(2^5-fluoro-4-oxo-1^1H-3-aza-1(2,4)-imidazola-2(1,2)-benzenacyclononaphane-9-yl)pyridine 1-oxide]
Ki [1]: 0.55 nM
Ki [2]: 1.35 nM

O=C1CCCCC(c2ccc(-c3c(-n4cnnn4)ccc(Cl)c3F)c[n+]2[O-])c2cccc(c2)-c2cc(C(=O)O)ccc2N1 (single isomer, unassigned) [Example 5-a, 2-(2^5-carboxy-4-oxo-3-aza-1(1,3),2(1,2)-dibenzenacyclononaphane-9-yl)-5-(3-chloro-2-fluoro-6-(1H-tetrazol-1-yl)phenyl)pyridine 1-oxide]
Ki [1]: 0.13 nM
Ki [2]: 3.15 nM

COC(=O)Nc1ccc2c(c1)NC(=O)CCCCC(c1ccc(-c3cc(Cl)ccc3-n3cnnn3)c[n+]1[O-])c1cccc-2c1 (single isomer, unassigned) [Example 6-a, 5-(5-Chloro-2-(1H-tetrazol-1-yl)phenyl)-2-(2^4-((methoxycarbonyl)amino)-4-oxo-3-aza-1(1,3),2(1,2) -dibenzenacyclononaphane-9-yl)pyridine 1-oxide]
Ki [1]: 0.1 nM
Ki [2]: 0.29 nM

O=C1CCCCC(c2ccc(-c3cc(Cl)cc(F)c3-n3cnnn3)c[n+]2[O-])c2cccc(c2)-c2cc(F)ccc2N1 (single isomer, unassigned) [Example 7-a, 5-(5-chloro-3-fluoro-2-(1H-tetrazol-1-yl)phenyl)-2-(2^5-fluoro-4-oxo-3-aza-1(1,3),2(1,2)-dibenzenacyclononaphane-9-yl)pyridine 1-oxide]
Ki [1]: 2.4 nM
Ki [2]: 238 nM

COC(=O)Nc1ccc2c(c1)NC(=O)[C@H](C)CCC[C@H](c1ccc(-c3c(F)cccc3F)c[n+]1[O-])c1nc-2c(C2CC2)[nH]1 (single isomer, unassigned) [Example 145-a]
Ki [2]: 0.3 nM

COC(=O)Nc1ccc2c(c1)NC(=O)[C@@H](C)CCC[C@H](c1ccc(-c3c(F)cccc3F)c[n+]1[O-])c1nc-2c(C2CC2)[nH]1 (single isomer, unassigned) [Example 145-c]
Ki [2]: 1.1 nM

CCc1[nH]c2nc1-c1ccc(NC(=O)OC)cc1NC(=O)[C@H](C)CCC[C@@H]2c1ccc(-c2c(F)cccc2OC(F)F)c[n+]1[O-] (single isomer, unassigned) [Example 146-a]
Ki [2]: 0.71 nM

CCc1[nH]c2nc1-c1ccc(NC(=O)OC)cc1NC(=O)[C@@H](C)CCC[C@@H]2c1ccc(-c2c(F)cccc2OC(F)F)c[n+]1[O-] (single isomer, unassigned) [Example 146-c]
Ki [2]: 3.46 nM

COC(=O)Nc1ccc2c(c1)NC(=O)[C@H](C)CCC[C@H](c1ccc(-c3cc(F)ccc3OC(F)(F)F)c[n+]1[O-])c1nc-2c(C)[nH]1 (single isomer, unassigned) [Example 149-a]
Ki [2]: 2.02 nM

COC(=O)Nc1ccc2c(c1)NC(=O)[C@@H](C)CCC[C@@H](c1ccc(-c3cc(F)ccc3OC(F)(F)F)c[n+]1[O-])c1nc-2c(C)[nH]1 (single isomer, unassigned) [Example 149-b]
Ki [2]: 53.7 nM

COC(=O)Nc1ccc2c(c1)NC(=O)[C@@H](C)CCC[C@H](c1ccc(-c3cc(F)ccc3OC(F)(F)F)c[n+]1[O-])c1nc-2c(C)[nH]1 (single isomer, unassigned) [Example 149-c]
Ki [2]: 7.71 nM

COC(=O)Nc1ccc2c(c1)NC(=O)[C@H](C)CCC[C@H](c1ccc(-c3c(OC(F)F)ccc(F)c3F)c[n+]1[O-])c1nc-2c(C)[nH]1 (single isomer, unassigned) [Example 150-a]
Ki [2]: 0.51 nM

COC(=O)Nc1ccc2c(c1)NC(=O)[C@@H](C)CCC[C@@H](c1ccc(-c3c(OC(F)F)ccc(F)c3F)c[n+]1[O-])c1nc-2c(C)[nH]1 (single isomer, unassigned) [Example 150-b]
Ki [2]: 31.2 nM

COC(=O)Nc1ccc2c(c1)NC(=O)[C@@H](C)CCC[C@H](c1ccc(-c3c(OC(F)F)ccc(F)c3F)c[n+]1[O-])c1nc-2c(C)[nH]1 (single isomer, unassigned) [Example 150-c]
Ki [2]: 1.5 nM

COC(=O)Nc1ccc2c(c1)NC(=O)CC[C@@H](C)C[C@H](c1ccc(-c3c(F)ccc(Cl)c3F)c[n+]1[O-])c1nc-2c(C)[nH]1 (single isomer, unassigned) [Example 151-a]
Ki [2]: 0.16 nM

COC(=O)Nc1ccc2c(c1)NC(=O)CC[C@H](C)C[C@H](c1ccc(-c3c(F)ccc(Cl)c3F)c[n+]1[O-])c1nc-2c(C)[nH]1 (single isomer, unassigned) [Example 151-b]
Ki [2]: 10.8 nM

COC(=O)Nc1ccc2c(c1)NC(=O)CC[C@@H](C)C[C@@H](c1ccc(-c3c(F)ccc(Cl)c3F)c[n+]1[O-])c1nc-2c(C)[nH]1 (single isomer, unassigned) [Example 151-c]
Ki [2]: 29 nM

COC(=O)Nc1ccc2c(c1)NC(=O)CC[C@@H](C)C[C@H](c1ccc(-c3c(F)cccc3OC(F)F)c[n+]1[O-])c1nc-2c(C)[nH]1 (single isomer, unassigned) [Example 152-a]
Ki [2]: 2.76 nM

COC(=O)Nc1ccc2c(c1)NC(=O)CC[C@H](C)C[C@H](c1ccc(-c3c(F)cccc3OC(F)F)c[n+]1[O-])c1nc-2c(C)[nH]1 (single isomer, unassigned) [Example 152-b]
Ki [2]: 114 nM

C[C@H]1CCC[C@@H](c2ccc(-c3cc(Cl)ccc3-n3cc(C(F)(F)F)cn3)c[n+]2[O-])c2cccc(c2)-c2c(cnn2C(F)F)NC1=O (single isomer, unassigned) [Example 168-d]
Ki [2]: 161 nM
